# In patent US20220096431A1, “PHARMACEUTICAL COMPOSITION AND METHOD FOR PREVENTING, TREATING AND DIAGNOSING A NEURODEGENERATIVE DISEASE” (BUDDHIST TZU CHI MEDICAL FOUNDATION, priority 2020, published 2022):
# What was measured:
# 3xTg AD mice [1] = experiment: Immunostaining with Aβ1-42 antibody of brain sections; type: in vivo
# Procedure: FIGS. 8D and 8E show the result of immunostaining with Aβ1-42 antibody to detect amyloid deposition in the brain. Brain sections were selected at −2.2 mm posterior to bregma. Red dot indicated Aβ1-42 plaque accumulation. n=5 for B6 mice and 3xTg-60 mg/kg n-BP group. n=4 for 3xTg vehicle group. n=6 for […]. Scale bars represent 1 mm. *p-value<0.05, **p-value<0.01 (Student's t-test).
# It was observed that AP accumulation was absent in the hippocampus of B6 mice but present in that of 3xTg AD mice. […] Specifically, immunostaining was used to detect Aβ1-42 accumulation in the hippocampus of 14-month-old 3xTg AD mice.
# [2] = test system: NICD, Aβ1-42 and PSEN1 in iPSC-derived human neurons; experiment: Western blot of NICD, Aβ1-42 and PSEN1 in iPSC-derived human neurons; type: cell-based; conditions: 100 μM n-BP, 48 h
# Procedure: Because the Notch intracellular domain (NICD) is most relevant to the development of AD drugs, western blot analysis was conducted to explore the effect of 100 μM n-BP-induced inhibition of Notch cleavage in iPSC-derived human neurons and on the expressions of miR-29b-2-5p and PSEN1. […] The change in the expressions of miR-29b-2-5p, PSEN1, and Aβ1-42 was therefore consistent with those observed in n-BP-treated Ts-21 iPSCs.
# SH-SY5Y [3] = experiment: MTT cell viability of SH-SY5Y cells; conditions: n-Bp 100 μM, vitamin C 200 μM
# Excerpt: (§1) Then, the cell viability is detected by a cell survival test using (3-(4,5-dimethylthiazol-2-yl)-2,5-diphenyltetrazolium bromide (MTT) assay.
# [4] = test system: miR-29b-2-5p expression in C6-C99 cells; experiment: RT-qPCR of miR-29b-2-5p/miR-9-5p in C6-C99 cells; type: cell-based; conditions: 100 μM n-BP
# Procedure: Then, C6-C99 cells were used to explore the effect of 100 μM n-butylidenephthalide (n-BP) on the expressions of miR-29b-2-5p, PSEN1, and Aβ1-42. […] Also shown in FIGS. 4G to 4I are the results of using miR-29b-2-5p inhibitor to evaluate whether n-BP inhibited PSEN1 and Aβ1-42 expression through miR-29b-2-5p. Specifically, miR-29b-2-5p inhibitor was transfected into C6-C99 cells and examined the inhibitory effect of n-BP treatment on PSEN1 and Aβ1-42 expression. It was observed that the addition of the miR-29b-2-5p inhibitor to C6-C99 cells abolished the 100 μM n-BP induced decrease in PSEN1 and Aβ1-42 expression.
# SH-SY5Y [5] = experiment: Aβ1-42 poisoning experiment in SH-SY5Y cells (MTT); type: cell-based, human; conditions: n-butylidenephthalide 100 μM, vitamin C 200 μM, alone or in combination, Aβ1-42 1 μM
# Excerpt: as §1
# [6] = test system: miR-29b-2-5p and PSEN1 expression in Ts-21 iPSCs; experiment: Real-time PCR of miR-29b-2-5p and PSEN1 in Ts-21 iPSCs; type: cell-based, human; conditions: 100 μM n-BP
# Excerpt: FIGS. 6A and 6B show the RT-qPCR analysis result of expression levels of miR-29b-2-5p/miR-9-5p and PSEN1/β-actin with or without […] n-BP. n=3 for each group.
# 3xTg AD mice [7] = experiment: Morris water maze test in AD-3xTg mice; type: in vivo
# Procedure: Red dot, starting point of the swim; green dot, end point of the swim.
# N=4 for wild-type and 10 mg/kg donepezil-treated 3xTg mice. N=6 for vehicle-treated 3xTg mice, 60 mg/kg n-BP-treated 3xTg mice, and 120 mg/kg n-BP-treated 3xTg mice. *p-value<0.05, **p-value<0.01 (Student's t-test). […] After 4-12 months, the B6 (C57/BL6) control mice have no AP accumulation (Green color).
# The mice behavioral experiment using Morris water maze is a classical test to detect short-term memory and complex memory. Through its behavior, it can be determined whether there is a difference in memory after drug treatment. […] Two sessions were conducted on Day 1 as follows: (1) mice were placed in the swimming pool to adapt to the environment for a training duration of 120 seconds; (2) a hidden rest platform was added to the pool at a precise location in the northwest corner of the pool (blue diamond in the east; red circle in the west and yellow triangle in the south as shown in FIG. 7G) and the mice were allowed for to swim in the pool for a duration of another 120 seconds. If the rescue platform was not found by the mouse within the allocated time, the mouse was guided to the platform. The test for finding the rescue platform is carried out for the next four consecutive days, with each session lasting 90 seconds. The result is collected and analyzed.
# [8] = test system: miR-29b-2-5p and PSEN1 in the hippocampus of 3xTg AD mice; experiment: RT-qPCR of miR-29b-2-5p and PSEN1 in the hippocampus of 3xTg AD mice; type: in vivo
# Excerpt: FIGS. 7E and 7F show the RT-qPCR analysis result of the expression levels of miR-29b-2-5p and PSEN1, respectively, in the hippocampus of 3xTg AD mice. n=—4.
# AD-3xTg transgenic mice are an animal model used to study Alzheimer's disease. The transgenic mice are genetically engineered to carry point mutations of human amyloid precursor protein (APP), microtubule-associated protein tau (MAPT P301L) and type I presenilin protein (PSEN-1). The AD-3xTg transgenic mice carrying Alzheimer's mutation genes affect the brain and produce symptoms, mainly involving amyloid aggregation in the hippocampus and cerebral cortex. […] The 3xTg mice have β-amyloid accumulation in the brain and have problems related to cognition.
# [9] = test system: neurons differentiated from trisomy 21-iPSC; experiment: Aβ aggregation, phosphorylated Tau and miRNA in neurons differentiated from Ts21-iPSC; type: cell-based, human
# Excerpt: The neurons differentiated from the induced pluripotent stem cells produce hyperphosphorylated Tau (AT8). Excessive expression of AT8 affects winding signals and nutrient transmission of neurons; Aβ 1-42 is the main component of amyloid accumulation; microtubule-associated protein (microtubule-associated protein 2, MAP2) is a marker of neurons which mainly maintains the stability of dendritic neurons; tubulin (neuron-specific class III β-tubulin, TuJ1) is also a marker of neurons.
# By genetic engineering, the four transcription factors Oct-4, Sox-2, c-Myc, and Klf-4 were delivered into adult cells and reverse-transcribed the cells into induced pluripotent stem cells (iPSC) carrying trisomy 21(Ts21) gene mutation.
# [10] = hippocampal gyrus of AD-3xTg mice, 120 mg/kg orally, vs untreated
# [11] = hippocampus of 3xTg AD mice, control 100%
structure (smiles),measurement,setting,value
"CCCC=C1OC(=O)c2ccccc21 [n-BP, n-butylidenephthalide]",Aβ accumulation in the hippocampus (Aβ1-42 antibody),"3xTg AD mice [1]; 3xTg AD mice, either dose of n-BP (60 or 120 mg/kg)",significantly decreased
same,Aβ1-42 accumulation in the brain (immunostaining),"3xTg AD mice [1]; 14-month-old 3xTg AD mice, 120 mg n-BP/kg, vs vehicle",significantly reduced
same,Aβ1-42 protein expression,[2],35.02%±24.39%
same,Expression of proteins in NICD,[2],no change
same,PSEN1 protein expression,[2],65.94%±4.52%
same,Cell survival (biosafety),SH-SY5Y [3],Neither butylidenephthalide nor vitamin C has any effect on cell survival
same,miR-29b-2-5p expression,[4],358.95%±24.74%
same,"Cell survival, protection against Aβ1-42 damage",SH-SY5Y [5],has an effect on increasing cell survival
same,"Expression levels of other AD-related genes BACE1, PSEN2, APOE3 and APOE4",[6],without significant difference
same,PSEN1 expression (real-time PCR),[6],58.10%±29.28%
same,miR-29b-2-5p expression,[6],12.38 fold
same,Movement trajectory,3xTg AD mice [7]; 120 mg n-BP/kg vs 60 mg n-BP/kg,shorter movement trajectory
same,Locating and arriving at the resting platform,"3xTg AD mice [7]; 120 mg/kg n-BP, donepezil as positive control",able to quickly locate and arrive at the resting platform
same,Finding the rest platform after training,3xTg AD mice [7]; 60 and 120 mg n-BP/kg,could find the rest platform after training
same,Time required to find the platform,"3xTg AD mice [7]; Day 5, 120 mg/kg n-BP, 10 mg donepezil/kg, vs untreated 3xTg mice",significantly lower
same,Gene expression level of PSEN-1,[8]; [10],decreased expression levels
same,Gene expression level of miRNA-29b-2-5p,[8]; [10],higher expression levels
same,PSEN1 expression,[8]; [11],26.26%±27.75%
same,miR-29b-2-5p expression,[8]; [11],188.58%±55.09%
same,Aβ aggregation,[9]; FIG. 5B,effectively reduces
same,Phosphorylation of Tau protein,[9]; FIG. 5B,effectively reduces
same,Expression level of miRNA-29b-2-5p,[9]; FIG. 5C,increased significantly
same,Aggregation of Aβ 1-42 (protein levels),[9]; FIG. 5D,decreased
same,Protein expression of phosphorylated Tau protein,[9]; FIG. 5D,decreased
